Experimental data: paper PMC3858179 (Journal of medicinal chemistry, 2008)
Read-outs that look alike come from different tables or passages of the source.

Assays:
60 tumor cell lines [1] = settings: in 11 of the 60 tumor cell lines evaluated; cited from earlier work
CAKI-1 [2] = settings: read-out: GI50 CAKI-1; Renal Cancer; cited from earlier work
PC-3 = settings: read-out: GI50 PC-3; Prostrate Cancer; cited from earlier work
CCRF-CEM [3] = settings: read-out: GI50 CCRF-CEM; Leukemia; cited from earlier work
[4] = system: folyl poly-γ-glutamate synthetase (FPGS); settings: cited from earlier work
SF268 [5] = settings: read-out: GI50 SF268; Central Nervous System Cancer; cited from earlier work
NCI-H460 [6] = settings: read-out: GI50 NCI-H460; Nonsmall Cell Lung Cancer; cited from earlier work
HL-60 × (TB) [7] = settings: read-out: GI50 HL-60 × (TB); Leukemia; cited from earlier work
ACHN [8] = settings: read-out: GI50 ACHN; Renal Cancer; cited from earlier work
HT29 [9] = settings: read-out: GI50 HT29; Colon Cancer; cited from earlier work
SW-620 [10] = settings: read-out: GI50 SW-620; Colon Cancer; cited from earlier work
MCF-7 = settings: read-out: GI50 MCF-7; Breast Cancer; cited from earlier work
U251 [11] = settings: read-out: GI50 U251; Central Nervous System Cancer; cited from earlier work
[12] = system: human CCRF-CEM leukemia cells; settings: read-out: EC50 growth of human CCRF-CEM leukemia cells in culture; cited from earlier work
MOLT-4 [13] = settings: read-out: GI50 MOLT-4; Leukemia; cited from earlier work
HCT 15 [14] = settings: read-out: GI50 HCT 15; Colon Cancer; cited from earlier work
RPMI-8226 [15] = settings: read-out: GI50 RPMI-8226; Leukemia; cited from earlier work
K-562 [16] = settings: read-out: GI50 K-562; Leukemia; cited from earlier work
CCRF-CEM [17] = test: NCI tumor cell growth inhibition, CCRF-CEM; assay type: cell-based; settings: Homo sapiens, read-out: GI50 CCRF-CEM
human DHFR = target: T1, human DHFR (Homo sapiens, UniProt P00374); test: Inhibition of isolated human DHFR; assay type: biochemical
T1 sequence (P00374 1-187): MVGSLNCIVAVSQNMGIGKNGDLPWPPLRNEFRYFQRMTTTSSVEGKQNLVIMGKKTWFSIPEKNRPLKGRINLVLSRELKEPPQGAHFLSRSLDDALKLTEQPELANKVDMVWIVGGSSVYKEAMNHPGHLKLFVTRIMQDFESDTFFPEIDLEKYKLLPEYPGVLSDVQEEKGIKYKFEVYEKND

human TS = human TS (Homo sapiens, UniProt P04818); test: Inhibition of isolated human TS; assay type: biochemical
60 tumor cell lines [18] = test: NCI in vitro preclinical antitumor screening, 60 tumor cell lines; assay type: cell-based
MOLT-4 [19] = test: NCI tumor cell growth inhibition, MOLT-4; assay type: cell-based; settings: Homo sapiens, MOLT-4, read-out: GI50 MOLT-4
LOX IMVI = test: NCI tumor cell growth inhibition, LOX IMVI; assay type: cell-based; settings: Homo sapiens, read-out: GI50 LOX IMVI
ACHN [20] = test: NCI tumor cell growth inhibition, ACHN; assay type: cell-based; settings: Homo sapiens, read-out: GI50 ACHN
HL-60 × (TB) [21] = test: NCI tumor cell growth inhibition, HL-60 ×; assay type: cell-based; settings: Homo sapiens, HL-60, read-out: GI50 HL-60 × (TB)
T. gondii DHFR = target: T2, T. gondii DHFR (Toxoplasma gondii, UniProt Q07422); assay type: biochemical; settings: 20 compounds jointly assayed, by both protocols (Table 1 and Table 2 conditions)
T2 sequence (Q07422 1-610): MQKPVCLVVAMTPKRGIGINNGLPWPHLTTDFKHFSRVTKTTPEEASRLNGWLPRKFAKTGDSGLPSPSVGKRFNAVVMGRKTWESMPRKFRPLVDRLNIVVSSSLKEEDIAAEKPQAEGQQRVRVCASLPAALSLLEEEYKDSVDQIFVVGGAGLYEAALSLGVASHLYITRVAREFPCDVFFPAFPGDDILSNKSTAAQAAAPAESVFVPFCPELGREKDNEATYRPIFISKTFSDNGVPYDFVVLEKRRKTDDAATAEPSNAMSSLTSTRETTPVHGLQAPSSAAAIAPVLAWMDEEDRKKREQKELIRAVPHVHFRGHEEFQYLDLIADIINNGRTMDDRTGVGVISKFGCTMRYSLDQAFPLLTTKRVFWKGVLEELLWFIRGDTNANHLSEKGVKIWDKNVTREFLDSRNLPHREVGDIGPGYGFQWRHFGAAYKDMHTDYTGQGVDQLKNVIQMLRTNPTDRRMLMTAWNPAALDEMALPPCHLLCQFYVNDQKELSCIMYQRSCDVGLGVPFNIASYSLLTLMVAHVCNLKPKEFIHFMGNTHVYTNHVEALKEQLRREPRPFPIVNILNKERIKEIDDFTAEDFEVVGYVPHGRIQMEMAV

rat liver DHFR = rat liver DHFR (Rattus norvegicus, UniProt Q920D2); test: Inhibition of isolated rat liver DHFR; assay type: biochemical
U251 [22] = test: NCI tumor cell growth inhibition, U251; assay type: cell-based; settings: Homo sapiens, U-251, read-out: GI50 U251
SW-620 [23] = test: NCI tumor cell growth inhibition, SW-620; assay type: cell-based; settings: Homo sapiens, SW-620, read-out: GI50 SW-620
P. carinii DHFR = P. carinii DHFR (Pneumocystis carinii, UniProt P16184); test: biochemical
NCI-H460 [24] = test: NCI tumor cell growth inhibition, NCI-H460; assay type: cell-based; settings: Homo sapiens, NCI-H460, read-out: GI50 NCI-H460
HT29 [25] = test: NCI tumor cell growth inhibition, HT29; assay type: cell-based; settings: Homo sapiens, HT-29, read-out: GI50 HT29
M. avium DHFR = M. avium DHFR (Mycobacterium avium, UniProt O30463); test: Inhibition of isolated M. avium DHFR; assay type: biochemical
SF268 [26] = test: NCI tumor cell growth inhibition, SF268; assay type: cell-based; settings: Homo sapiens, SF-268, read-out: GI50 SF268
CAKI-1 [27] = test: NCI tumor cell growth inhibition, CAKI-1; assay type: cell-based; settings: Homo sapiens, CAKI-1, read-out: GI50 CAKI-1
HCT 15 [28] = test: NCI tumor cell growth inhibition, HCT 15; assay type: cell-based; settings: Homo sapiens, HCT-15, read-out: GI50 HCT 15
K-562 [29] = test: NCI tumor cell growth inhibition, K-562; assay type: cell-based; settings: Homo sapiens, K562, read-out: GI50 K-562
RPMI-8226 [30] = test: NCI tumor cell growth inhibition, RPMI-8226; assay type: cell-based; settings: Homo sapiens, RPMI-8226, read-out: GI50 RPMI-8226

Sequence of human TS (P04818 whole entry): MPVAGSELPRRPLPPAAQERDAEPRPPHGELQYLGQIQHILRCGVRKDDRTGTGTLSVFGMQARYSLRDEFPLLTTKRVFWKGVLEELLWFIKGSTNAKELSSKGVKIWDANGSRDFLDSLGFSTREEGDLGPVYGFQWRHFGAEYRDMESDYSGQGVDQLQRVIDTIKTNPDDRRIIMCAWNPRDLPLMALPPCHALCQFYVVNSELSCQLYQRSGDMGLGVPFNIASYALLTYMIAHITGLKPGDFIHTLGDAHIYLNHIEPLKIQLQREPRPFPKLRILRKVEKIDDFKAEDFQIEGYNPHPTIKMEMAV
Sequence of M. avium DHFR (O30463 1-181): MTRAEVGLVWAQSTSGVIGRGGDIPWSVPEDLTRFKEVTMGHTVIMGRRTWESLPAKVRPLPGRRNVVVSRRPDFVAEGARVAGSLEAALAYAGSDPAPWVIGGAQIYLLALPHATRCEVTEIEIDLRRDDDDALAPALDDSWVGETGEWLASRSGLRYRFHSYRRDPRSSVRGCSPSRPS
Sequence of P. carinii DHFR (P16184 whole entry): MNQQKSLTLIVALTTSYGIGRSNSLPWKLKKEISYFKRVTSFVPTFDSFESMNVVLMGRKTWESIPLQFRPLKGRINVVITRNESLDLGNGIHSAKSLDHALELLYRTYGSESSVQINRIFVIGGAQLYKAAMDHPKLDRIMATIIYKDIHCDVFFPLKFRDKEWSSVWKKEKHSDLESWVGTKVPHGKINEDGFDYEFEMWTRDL
Sequence of rat liver DHFR (Q920D2 whole entry): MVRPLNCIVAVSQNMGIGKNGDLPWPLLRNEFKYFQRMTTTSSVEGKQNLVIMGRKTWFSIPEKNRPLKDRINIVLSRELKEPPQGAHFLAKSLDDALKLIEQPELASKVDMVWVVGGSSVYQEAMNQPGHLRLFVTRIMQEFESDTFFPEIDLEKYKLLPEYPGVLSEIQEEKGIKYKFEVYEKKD

Cc1c(Sc2ccc(C(=O)N[C@@H](CCC(=O)O)C(=O)O)cc2)[nH]c2nc(N)nc(N)c12 [Compound 1]
GI50 (60 tumor cell lines [1]): ≤ 100 nM
GI50 (CAKI-1 [2]): > 100000 nM
GI50 (PC-3): 43.6 nM
GI50 (CCRF-CEM [3]): 221 nM
FPGS substrate activity [4]: reasonable
GI50 (SF268 [5]): 74700 nM
GI50 (NCI-H460 [6]): 631 nM
GI50 (HL-60 × (TB) [7]): 43.5 nM
GI50 (ACHN [8]): 24200 nM
GI50 (HT29 [9]): 160 nM
GI50 (SW-620 [10]): 124 nM
GI50 (MCF-7): > 100000 nM
GI50 (U251 [11]): 824 nM
EC50 [12]: 190 nM
GI50 (MOLT-4 [13]): < 10 nM
GI50 (HCT 15 [14]): 59500 nM
GI50 (RPMI-8226 [15]): < 10 nM
GI50 (K-562 [16]): 29.5 nM

CC(C)c1c(Sc2ccc(C(=O)N[C@@H](CCC(=O)O)C(=O)O)cc2)[nH]c2nc(N)nc(N)c12 [Compound 4, N-[4-[(2,4-Diamino-5-isopropyl-7H-pyrrolo[2,3-d]pyrimidin-6-yl)sulfanyl]-benzoyl]-L-glutamate]
GI50 (CCRF-CEM [17]): 536 nM
IC50 (human DHFR): 90 nM
fold less potent as hDHFR inhibitor compared with MTX (human DHFR): ~4 fold
fold more potent than pemetrexed as hDHFR inhibitor (human DHFR): ~17 fold
inhibition of hDHFR, in words (human DHFR): good inhibitors
fold less inhibitory than pemetrexed against hTS (human TS): 4 fold
fold less potent than 1 as inhibitor of hTS (human TS): 63-74 fold
GI50 (60 tumor cell lines [18]): < 1000 nM
GI50 (MOLT-4 [19]): 1310 nM
GI50 (LOX IMVI): 1140 nM
GI50 (ACHN [20]): 7390 nM
GI50 (HL-60 × (TB) [21]): 5650 nM
potency rank against T. gondii DHFR, in words (T. gondii DHFR): three most potent compounds
IC50 (rat liver DHFR): 186 nM
GI50 (U251 [22]): 7240 nM
GI50 (SW-620 [23]): 4710 nM
IC50 (P. carinii DHFR): 4.8 nM
Selectivity ratio rl/pc (P. carinii DHFR; IC50 rat liver DHFR/IC50 P. carinii DHFR): 38.8
GI50 (NCI-H460 [24]): 6450 nM
GI50 (HT29 [25]): 5760 nM
IC50 (M. avium DHFR): 0.391 nM
Selectivity ratio rl/ma (M. avium DHFR; IC50 rat liver DHFR/IC50 M. avium DHFR): 475.7
GI50 (SF268 [26]): 17800 nM
GI50 (CAKI-1 [27]): 4250 nM
GI50 (HCT 15 [28]): 34800 nM
GI50 (K-562 [29]): 932 nM
GI50 (RPMI-8226 [30]): 7740 nM
